Publication PMC9551036, “A selective and orally bioavailable VHL-recruiting PROTAC achieves SMARCA2 degradation in vivo” (Nature Communications, 2022)
Values joined by “and” are separate entries in the source; they are usually repeats but may differ in a detail not shown here. Equal values may be shown once. Read-outs that look alike come from different tables or passages of the source.

Key:
SMARCA4 [1] = biological target: T1, SMARCA4 (Homo sapiens, UniProt P51532); assay: Imaging-based SMARCA4 protein assay in RKO cells; type: cell-based; design: endogenous in cells; host or cells: RKO, HCT116, LU99, HCC-364, HCT-15, HCC4006, SK-N-AS; conditions: individual replicates
T1 sequence (P51532 whole entry): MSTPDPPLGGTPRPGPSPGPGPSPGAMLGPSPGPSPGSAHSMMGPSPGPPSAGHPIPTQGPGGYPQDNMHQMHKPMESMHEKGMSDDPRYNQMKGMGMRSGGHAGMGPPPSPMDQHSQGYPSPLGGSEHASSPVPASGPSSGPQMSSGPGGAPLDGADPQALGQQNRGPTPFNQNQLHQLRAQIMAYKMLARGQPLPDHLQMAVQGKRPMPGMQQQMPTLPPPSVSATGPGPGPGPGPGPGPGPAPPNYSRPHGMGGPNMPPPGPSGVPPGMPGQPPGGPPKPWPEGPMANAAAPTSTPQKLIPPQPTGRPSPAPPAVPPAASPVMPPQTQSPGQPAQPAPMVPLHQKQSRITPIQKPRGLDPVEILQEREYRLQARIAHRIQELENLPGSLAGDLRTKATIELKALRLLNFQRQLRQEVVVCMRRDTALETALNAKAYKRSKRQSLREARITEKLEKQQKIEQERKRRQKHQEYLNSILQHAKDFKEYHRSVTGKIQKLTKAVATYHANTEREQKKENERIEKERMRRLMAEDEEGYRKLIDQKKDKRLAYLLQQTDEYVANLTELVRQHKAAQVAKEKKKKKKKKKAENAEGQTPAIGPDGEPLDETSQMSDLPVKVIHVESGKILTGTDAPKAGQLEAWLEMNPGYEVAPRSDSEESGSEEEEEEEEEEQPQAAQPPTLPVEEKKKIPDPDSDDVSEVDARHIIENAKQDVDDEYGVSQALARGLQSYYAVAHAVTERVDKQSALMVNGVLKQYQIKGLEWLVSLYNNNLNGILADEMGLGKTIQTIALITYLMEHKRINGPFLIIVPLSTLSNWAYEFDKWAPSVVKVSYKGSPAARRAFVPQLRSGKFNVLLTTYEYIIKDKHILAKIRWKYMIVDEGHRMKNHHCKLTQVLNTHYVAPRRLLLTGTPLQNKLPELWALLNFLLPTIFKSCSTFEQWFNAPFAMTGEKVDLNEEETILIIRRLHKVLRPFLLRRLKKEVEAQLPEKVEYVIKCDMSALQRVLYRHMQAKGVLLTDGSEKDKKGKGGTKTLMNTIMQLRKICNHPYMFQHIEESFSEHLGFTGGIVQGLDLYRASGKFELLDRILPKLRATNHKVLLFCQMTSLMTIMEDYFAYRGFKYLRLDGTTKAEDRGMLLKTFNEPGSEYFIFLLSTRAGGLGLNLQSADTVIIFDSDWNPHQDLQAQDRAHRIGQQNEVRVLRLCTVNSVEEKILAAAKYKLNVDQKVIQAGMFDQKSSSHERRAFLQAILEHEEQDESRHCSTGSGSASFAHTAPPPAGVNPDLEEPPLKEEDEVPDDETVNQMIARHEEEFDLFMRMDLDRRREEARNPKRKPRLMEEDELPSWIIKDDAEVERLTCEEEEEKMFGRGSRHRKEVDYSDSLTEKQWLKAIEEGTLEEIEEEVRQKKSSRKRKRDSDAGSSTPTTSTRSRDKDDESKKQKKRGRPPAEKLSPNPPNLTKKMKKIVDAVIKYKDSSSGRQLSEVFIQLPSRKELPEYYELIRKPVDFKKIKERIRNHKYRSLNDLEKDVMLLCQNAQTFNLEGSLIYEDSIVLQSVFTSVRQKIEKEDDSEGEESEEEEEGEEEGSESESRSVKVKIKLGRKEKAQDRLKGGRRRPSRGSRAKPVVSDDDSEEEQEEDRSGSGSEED
Description: 1250 cells per well in 60 µl medium were plated in flat bottom, poly-lysin coated 384-well plates (CellCarrier Ultra, Perkin Elmer). The next day, test compounds (10 µl of serial dilutions) and DMSO controls were diluted in DMEM medium such that the final DMSO content was <1% or were added using an ultrasound dispensing system. 4 wells were reserved for a background measurement. […] After aspirating the fixing solution, the cells were washed once with 25 µl PBS. 25 µl of blocking buffer (10% goat serum in PBS) was added and cells were incubated for 30 min, then washed once with PBS. Cells were stained with 20 µl of SMARCA2/4 primary antibody solution (Sigma #HPA029981 RRID:AB_10602406 1:1000 or Cell Signalling #52251 clone E9O6 RRID:AB_2799410 1:1000 in PBS with 10% FCS) for 2–4 h at room temperature. Cells were again washed once with PBS. […] The cell layer was then washed once with 25 µl PBS, the wells were filled with 25 µl PBS and the plates were sealed with an adhesive sheet. They were then imaged on the Opera Phoenix (mean intensity in the nucleus). Results were computed as percent of controls ((value of test compound − background)/(value of the negative control DMSO—background) multiplied by 100). EC50 values were computed using a 4-parametric logistic model.

NCI-H1568 cells = assay: Cell viability assay (CellTiter Glo) in NCI-H1568; type: cell-based, human; conditions: for EC50: read-out: EC50 cell proliferation (CellTiter Glo); for IC50: NCI-H1568, (18h), CellTiter Glo, individual replicates, read-out: NCI-H1568 (18h) CTG
Description: 500–2000 cells were seeded in white, clear bottom 96-well plates (Corning or Perkin Elmer) in 180–200 µl medium per well. The next day, compounds were added using a digital dispenser and a T0 sample was measured for reference. […], and viability (luminescence) was measured using CellTiter Glo or CellTiter Glo 2.0 (Promega) according to manufacturer’s instructions after equilibrating cells and reagents at room temperature and 10–20 min incubation time while shaking.

PBRM1BD5 = biological target: T2, PBRM1BD5 (Homo sapiens, UniProt Q86U86); assay: TR-FRET ternary complex affinity and cooperativity, PBRM1; type: binding; conditions: TR-FRET competition for PBRM1BD5, without VCB; mean ± SD; read-out: TR-FRET PBRM1BD EC50
T2 construct: GST (TEV site) (N); His6 (TEV site) (N, cleaved yes); made in house; host or cells: PBRM1^BD5: Escherichia coli BL21(DE3)
T2 sequence (Q86U86 645-766): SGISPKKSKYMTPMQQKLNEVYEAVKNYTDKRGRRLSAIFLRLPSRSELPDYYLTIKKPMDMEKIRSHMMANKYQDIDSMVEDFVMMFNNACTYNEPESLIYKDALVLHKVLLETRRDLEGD

SMARCA4 [2] = biological target: T1, SMARCA4; assay: SMARCA4 capillary electrophoresis protein assay in RKO cells; type: cell-based; design: endogenous in cells; host or cells: RKO, HCT116, LU99, HCC-364, HCT-15, HCC4006, SK-N-AS; conditions: mean ± SD
Description: 130,000–200,000 cells were seeded in 24-well plates and incubated until settled down or overnight. Compounds were dissolved in DMSO and added to cells in indicated concentrations using a digital dispenser following an optional media change. Cells were incubated for 4 or 18 h as indicated. For SMARCA2/4 half-life determination, 150,000 or 200,000 cells were seeded in 24-well plates. The next day, 50 µg/ml cycloheximide (Sigma) was added and cells were incubated for 1–24 h. For SMARCA2/4 re-synthesis measurements, 200,000 cells were seeded in 24-well plates. The next day, 100 nM compound 6 was added for 4 h to degrade SMARCA2/4, and a sample was taken as baseline for normalisation. To allow re-synthesis, a VHL binder (compound 32, 25 or 50 µM) was then added for 3 or 24 h. Medium was removed, cells were washed with PBS and lysed with 80 µl Lysis Buffer (MSD Tris Lysis Buffer (#R60TX-2) + Halt Inhibitor Cocktail (100x) + Benzonase 0.5 µL/ml). Samples were frozen at −80 °C and thawed at room temperature before use. Samples were transferred to a V-bottom plate and insoluble debris was pelleted by centrifugation for 5 min at maximum speed. The supernatant was transferred to a fresh plate. Master Mix and Ladder were prepared according to manufacturer’s instructions for 12–230 kDa Wes Separation Module, 8 × 25 capillary cartridges, Protein Simple #SM-W004 with Anti-Rabbit Detection Module for Wes, Peggy Sue or Sally Sue, Protein Simple #DM-001. 4.8 µl lysate were mixed with 1.2 µl Master Mix to achieve a protein concentration of ~0.5 µg/µl. Antibodies were diluted in Antibody Diluent II (SMARCA2 Sigma #HPA029981 RRID:AB_10602406 1:25–100, SMARCA4 Cell Signalling #49360 clone D1Q7F RRID:AB_2728743 1:15–120 or Abcam #ab110641 clone EPNCIR111A RRID:AB_10861578 1:60, GAPDH Abcam #ab9485 RRID:AB_307275 1:250). Wes plates were prepared and run according to manufacturer’s instructions. Proteins were quantified with accompanying Compass Software. SMARCA2/4 protein levels were normalised to GAPDH. […] Where applicable, curves were fitted using a 4-parametric logistic model.

[3] = 4h, read-out: RKO (4h) SMARCA4 DC50
[4] = 18h, read-out: RKO (18h) SMARCA4 DC50

Row | SMILES | DC50 (SMARCA4 [1]; [3]) | DC50 (SMARCA4 [1]; [4]) | EC50 (NCI-H1568 cells; NCI-H1568 ([…]), mean ± SD) [nM] | IC50 (NCI-H1568 cells) | EC50 (PBRM1BD5) [nM] | DC50 (SMARCA4 [2]; RKO (4 h)) [nM] | SMARCA4 Dmax (SMARCA4 [2]; RKO (4 h)) [%] | DC50 (SMARCA4 [2]; RKO (18 h)) [nM] | SMARCA4 Dmax (SMARCA4 [2]; RKO (18 h)) [%] | EC50 (NCI-H1568 cells; Homo sapiens, NCI-H1568, […]) [nM] | Dmax (SMARCA4 [2]; RKO, RKO (18 h)) [%]
1 | Cc1ncsc1-c1ccc(CNC(=O)[C@@H]2C[C@@H](O)CN2C(=O)[C@@H](NC(=O)C2(F)CC2)C(C)(C)C)c(OCCOCCOCCOCCN2CCC(c3ccc4c(c3)n(C3CCCC3)c3nc(=O)c5c(Br)cccc5n43)CC2)c1 [compound 22] | 32.8 nM and 118 nM and 40 nM | 39.9 nM and 168 nM and 69.1 nM | 187 ± 76 | 280 nM and 175 nM and 133 nM | 103 ± 13 | 54 ± 47 | 84 ± 1 | 77 ± 67 | 89 ± 5 |  | 
2 | Cc1ncsc1-c1ccc([C@H](COC(C)(C)CN2CCC(c3ccc4c(c3)n(C3CCCC3)c3nc(=O)c5c(Br)cccc5n43)CC2)NC(=O)[C@@H]2C[C@@H](O)CN2C(=O)[C@@H](NC(=O)C2(F)CC2)C(C)(C)C)cc1 [compound 28] |  | 101 nM and 200 nM (2×) and > 833 nM | 16 ± 5 | 16.7 nM and 21.6 nM and 18.3 nM and 17.1 nM and 20.5 nM and 6.45 nM | 24 ± 11 | > 25000 |  | 159 ± 57 | 14 ± 42 |  | 
3 | CN1CCN(c2nc(=O)c3c(F)cccc3o2)CC1 [compound 17] | > 25000 nM | > 25000 nM | > 10000 | > 10000 nM | > 10000 | > 25000 |  | > 25000 |  |  | 
4 | Cc1ncsc1-c1ccc([C@H](COC(C)CN2CCC(c3ccc4c(c3)n(C3CCCC3)c3nc(=O)c5c(Br)cccc5n43)CC2)NC(=O)[C@@H]2C[C@@H](O)CN2C(=O)[C@@H](NC(=O)C2(F)CC2)C(C)(C)C)cc1 (stereo partly shown) [compound 9] | > 25000 nM | 912 nM and > 833 nM (2×) and 3.47 µM |  | 48.2 nM and 116 nM and 16.6 nM | 34 ± 4 | > 25000 |  | 1780 |  | 45 ± 51 | 88 ± 16
